From US20220048896A1, “PYRAZOLE COMPOUNDS SUBSTITUTED WITH HETEROARYL AND PHARMACEUTICAL USE THEREOF” (Japan Tobacco Inc., priority 2018, published 2022)

How the values were obtained:
Assay type in all cases: cell-based
[1] = system: Salmonella typhimurium TA98; assay: Ames test (reverse mutation test), strain TA98; settings: for potential to induce reverse mutations, TA98: in the presence of S9 mix
Description: (§1) Metabolites 1 to 3 and Metabolites A to E were each tested herein. The purpose of this test is to evaluate the potential of each metabolite to induce reverse mutations in the standard strains of Salmonella typhimurium (TA98, TA1537, TA100, and TA1535) and Escherichia coli (WP2uvrA), in either the presence or absence of a rat liver metabolic activation system (S9 mix).
(§2) The solvent used herein was dimethyl sulfoxide (DMSO, 100 μL/plate).
(§3) The test was performed by the pre-incubation method with or without S9 mix. When the test was performed without S9 mix, sodium phosphate buffer solution (pH 7.4) was added.
(§4) 0.5 mL of S9 mix or 0.5 mL of 0.1 mol/L sodium phosphate buffer solution (pH 7.4), and 0.1 mL of the bacterial culture solution were added to a test tube containing 0.1 mL of the negative control formulation (DMSO alone), the metabolite, or the positive control formulation. The mixtures were pre-incubated at 37° C. for 20 minutes while shaking. After the pre-incubation period, 2 mL of top agar were added and the mixtures were vortex-mixed and seeded onto plates. Two plates per treatment were used. Each plate was incubated at 37±1° C. for 48 hours or more and the revertant colonies were counted. The mean number of revertant colonies for each treatment plate was then calculated. The presence or absence of growth inhibition due to any antibacterial effect of the test article and precipitation of the test article was observed grossly or under a stereomicroscope. […] Evaluation was based on mean values with no statistical comparisons being used.

[2] = system: Salmonella typhimurium TA1537; assay: Ames test (reverse mutation test), strain TA1537
Description: as §1, §2, §3, §4

[3] = system: Salmonella typhimurium TA100; assay: Ames test (reverse mutation test), strain TA100; settings: in the presence of S9 mix
Description: as §1, §2, §3, §4

[4] = system: Salmonella typhimurium TA1535; assay: Ames test (reverse mutation test), strain TA1535
Description: as §1, §2, §3
(§5) 0.5 mL of S9 mix or 0.5 mL of 0.1 mol/L sodium phosphate buffer solution (pH 7.4), and 0.1 mL of the bacterial culture solution were added to a test tube containing 0.1 mL of the negative control formulation (DMSO alone), the metabolite, or the positive control formulation. The mixtures were pre-incubated at 37° C. for 20 minutes while shaking. After the pre-incubation period, 2 mL of top agar were added and the mixtures were vortex-mixed and seeded onto plates. Two plates per treatment were used. Each plate was incubated at 37±1° C. for 48 hours or more and the revertant colonies were counted. The mean number of revertant colonies for each treatment plate was then calculated. […]

Escherichia coli WP2uvrA = assay: Ames test (reverse mutation test), strain WP2uvrA; settings: in the absence of S9 mix
Description: as §1, §2, §3, §5

SMILES	potential to induce reverse mutations, TA98 [1]	potential to induce reverse mutations, TA1537 ([2]; in the presence of S9 mix)	potential to induce reverse mutations, TA100 [3]	Number of revertant colonies TA98 ([1]; S9 mix +, 6.9 μg/plate)	Number of revertant colonies TA98 ([1]; S9 mix +, 21 μg/plate)	Number of revertant colonies TA98 ([1]; S9 mix +, 62 μg/plate)	Number of revertant colonies TA98 ([1]; S9 mix +, 185 μg/plate)	Number of revertant colonies TA98 ([1]; S9 mix +, 556 μg/plate)	Number of revertant colonies TA98 ([1]; S9 mix +, 1667 μg/plate)	Number of revertant colonies TA98 ([1]; S9 mix +, 5000 μg/plate)	Number of revertant colonies TA98 ([1]; S9 mix −, 6.9 μg/plate)	Number of revertant colonies TA98 ([1]; S9 mix −, 21 μg/plate)	Number of revertant colonies TA98 ([1]; S9 mix −, 62 μg/plate)	Number of revertant colonies TA98 ([1]; S9 mix −, 185 μg/plate)	Number of revertant colonies TA98 ([1]; S9 mix −, 556 μg/plate)	Number of revertant colonies TA98 ([1]; S9 mix −, 1667 μg/plate)	Number of revertant colonies TA98 ([1]; S9 mix −, 5000 μg/plate)	other results
Cc1cccc(-n2nc(N)cc2-c2cccc(OC(F)(F)F)c2)c1 [Metabolite E]	had potential to induce reverse mutations	had potential to induce reverse mutations	had potential to induce reverse mutations															
Nc1cc(-c2cc(F)cc(OC(F)(F)F)c2)n(-c2cncc(F)c2)n1 [Metabolite 2]				35	37	35	36	22	20	16	30	30	28	28	12	9	7	
CC(C)(Oc1cc(F)cc(-c2cc(N)nn2-c2cnc(C(F)(F)F)nc2)c1)C(F)(F)F [Metabolite 1]				37	39	40	40	34	27	21	32	32	31	29	30	15	7	
Nc1cc(-c2cc(F)cc(OC(F)(F)F)c2)n(-c2cncc(C(F)(F)F)c2)n1 [Metabolite 3]				36	38	38	33	27	25	17	29	28	29	26	24	18	14	
Nc1cc(-c2cccc(OCC(F)(F)F)c2)n(-c2ccc(F)cc2)n1 [Metabolite B]	had potential to induce reverse mutations	had potential to induce reverse mutations	had potential to induce reverse mutations															potential to induce reverse mutations, TA1537 ([2]; in the absence of S9 mix): had potential to induce reverse mutations; potential to induce reverse mutations, TA1535 ([4]; in the presence of S9 mix): had potential to induce reverse mutations
CC(C)(OCc1cc(F)cc(-c2cc(N)nn2-c2ccc(F)cc2)c1)C(F)(F)F [Metabolite A, reference compound]	had potential to induce reverse mutations	had potential to induce reverse mutations																
Cc1ccc(-n2nc(N)cc2-c2cccc(OCC(F)(F)F)c2)cc1 [Metabolite C]	had potential to induce reverse mutations	had potential to induce reverse mutations	had potential to induce reverse mutations															potential to induce reverse mutations, WP2uvrA (Escherichia coli WP2uvrA): had potential to induce reverse mutations
Nc1cc(-c2cccc(OC(F)(F)F)c2)n(-c2cccc(F)c2)n1 [Metabolite D]			had potential to induce reverse mutations															potential to induce reverse mutations, TA1535 ([4]; in the absence of S9 mix): had potential to induce reverse mutations
